Results taken from patent publication US8153624B2, “Compounds and methods for modulating FXR” (Eli Lilly and Company, priority 2007, dated 2012).

How the values were obtained:
[1] = molecular target: T1, Human FXR (Homo sapiens, UniProt Q96RI1); test: Human FXR/FXR-Response Element Luciferase Reporter Cotransfection Assay; assay type: cell-based
T1 construct: expressed in transfected cells
T1 sequence (Q96RI1 1-486): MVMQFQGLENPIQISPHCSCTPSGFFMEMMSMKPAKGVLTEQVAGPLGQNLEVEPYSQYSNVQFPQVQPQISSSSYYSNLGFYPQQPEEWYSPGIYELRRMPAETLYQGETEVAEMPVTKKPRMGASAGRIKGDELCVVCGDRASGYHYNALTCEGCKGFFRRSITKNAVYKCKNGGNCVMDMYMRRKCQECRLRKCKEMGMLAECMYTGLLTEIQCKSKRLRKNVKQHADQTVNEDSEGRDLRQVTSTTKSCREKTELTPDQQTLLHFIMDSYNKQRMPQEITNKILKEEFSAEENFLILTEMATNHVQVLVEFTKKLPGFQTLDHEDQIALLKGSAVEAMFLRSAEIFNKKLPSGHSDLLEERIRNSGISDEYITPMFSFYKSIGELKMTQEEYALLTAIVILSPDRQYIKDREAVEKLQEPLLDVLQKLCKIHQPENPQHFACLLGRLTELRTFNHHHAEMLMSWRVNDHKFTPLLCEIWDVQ
Procedure: Human FXR/FXR-Response Element Luciferase Reporter Cotransfection Assay
Compounds of the present invention are tested using the Human FXR/FXR-Response Element Luciferase Reporter Cotransfection Assay. The assay is performed essentially as described in J. Biological Chem. 2006, 281 (52), 39831-39838, except that 10 μg total DNA per million cells is used. One of skill in the art is able to perform this assay without undue experimentation.

[2] = molecular target: T2, human FXR ligand-binding domain (Homo sapiens, UniProt Q96RI1); test: FXR-SRC-1 Cofactor Recruitment Assay (Alpha Screen); assay type: biochemical; conditions: FXR-SRC-1 interaction
T2 construct: purchased Invitrogen Corporation
T2 sequence (Q96RI1 242-472 isoform Q96RI1-2 limits assumed): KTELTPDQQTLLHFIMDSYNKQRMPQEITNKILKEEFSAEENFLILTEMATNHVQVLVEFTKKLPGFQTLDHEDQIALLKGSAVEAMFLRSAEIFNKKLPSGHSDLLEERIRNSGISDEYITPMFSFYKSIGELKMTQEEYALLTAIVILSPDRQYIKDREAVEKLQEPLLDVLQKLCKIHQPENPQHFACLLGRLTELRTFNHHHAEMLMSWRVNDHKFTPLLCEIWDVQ
T2 sequence (Q15788 600-774 partner limits assumed): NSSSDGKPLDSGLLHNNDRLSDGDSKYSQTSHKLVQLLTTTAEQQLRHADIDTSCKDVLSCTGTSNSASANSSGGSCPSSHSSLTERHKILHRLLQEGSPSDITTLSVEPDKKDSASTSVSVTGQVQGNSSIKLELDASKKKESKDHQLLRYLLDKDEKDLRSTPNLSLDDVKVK
Procedure: FXR-SRC-1 Cofactor Recruitment Assay
Compounds are evaluated by an FXR-SRC-1 Cofactor Recruitment assay using the Alpha (Amplified Luminescent Proximity Homogeneous Assay) Screen technology according to the manufacturer instructions (Perkin Elmer Corporation, Norwalk, Conn., USA) at various concentrations. Mix purified 6-HIS-tagged human FXR ligand-binding domain (amino acids 242-472), purified GST-tagged human SRC-1 nuclear receptor-interacting domain (amino acids 220-394), Nickel Chelate donor beads (Perkin Elmer Corporation) and Anti-GST antibody acceptor beads (Perkin Elmer Corporation) together and aliquot 12 μL per well into 384 well plates. Add compounds in 3 μL per well for a total assay volume of 15 μL and incubate at room temperature in the dark for 4 hours. After incubation, compounds that bind FXR and induce the interaction between the FXR and SRC-1 (available from Invitrogen Corporation Carlsbad, Calif., USA) would bring the two bead types into proximity generating luminescence that is quantified. Calculate EC50 values. Exemplified compounds of the invention are found to be effective in the SRC-1 FXR interaction assay with EC50s of about 38-5200 nM.

[3] = test system: LDLR−/− mice; test: LDLR−/− Serum Lipid Modulation; assay type: in vivo; conditions: male LDLR−/− mice on western diet, 10 mg/kg once daily oral gavage, seven days
Procedure: LDLR−/− Serum Lipid Modulation
Acclimate animals for two weeks prior to study initiation. Maintain mice on a 12:12 hour light-dark cycle at 21° C. Provide deionized water ad libitum and maintain for two weeks on ‘western diet’ TD 88137 Diet (42% fat, 0.15% cholesterol, Harlan Teklad, Madison, Wis., USA) ad libitum. Optimize groups of five ten-week-old male LDLR−/− mice based on serum triglyceride and cholesterol levels. […] Separate lipoprotein fractions by FPLC, and quantify cholesterol with an in-line detection system. […] The colored product produced in the presence of cholesterol is monitored in the flow stream at 505 nm, and the analog voltage from the monitor is converted to a digital signal for collection and analysis. The change in voltage corresponding to change in cholesterol concentration is plotted vs. time, and the area under the curve corresponding to the elution of VLDL-C and HDL-C is calculated using Turbo Chrome® version 4.12F12 software (PerkinElmer Corporation). […]

Row | EC50 [1] | EC50 [2] | Compound | lowers total cholesterol [3] | lowers triglycerides [3]
1 | 220 nM | ~325 nM | O=C(O)c1ccc(N2CCC(OCc3c(-c4c(Cl)cccc4Cl)noc3C3CC3)CC2)cc1 [Example 7, 4-{4-[5-Cyclopropyl-3-(2,6-dichloro-phenyl)-isoxazol-4-ylmethoxy]-piperidin-1-yl}-benzoic acid] | – | –
2 | – | – | Cc1cc(N2CCC(OCc3c(-c4c(Cl)cccc4Cl)noc3C3CC3)CC2)ccc1C(=O)O [Example 9, 4-{4-[5-Cyclopropyl-3-(2,6-dichloro-phenyl)-isoxazol-4-ylmethoxy]-piperidin-1-yl}-2-methyl-benzoic acid] | about 76% | about 75%
